Data taken from patent US20240327787A1, “CULTURE MEDIUM, COATING MATRIX AND METHOD FOR EXPANDING MIDBRAIN DOPAMINERGIC PROGENITOR CELLS” (NUWACELL BIOTECHNOLOGIES CO., LTD., priority 2022, published 2024).

B1: VTN: vitronectin, first coating matrix that supports cell adhesion (protein, UniProt P04004 20-478, looked up)
Vitronectin: DQESCKGRCTEGFNVDKKCQCDELCSYYQSCCTDYTAECKPQVTRGDVFTMPEDEYTVYDDGEEKNNATVHEQVGGPSLTSDLQAQSKGNPEQTPVLKPEEEAPAPEVGASKPEGIDSRPETLHPGRPQPPAEEELCSGKPFDAFTDLKNGSLFAFRGQYCYELDEKAVRPGYPKLIRDVWGIEGPIDAAFTRINCQGKTYLFKGSQYWRFEDGVLDPDYPRNISDGFDGIPDNVDAALALPAHSYSGRERVYFFKGKQYWEYQFQHQPSQEECEGSSLSAVFEHFAMMQRDSWEDIFELLFWGRTSAGTRQPQFISRDWHGVPGQVDAAMAGRIYISGMAPRPSLAKKQRFRHRNRKGYRSQRGHSRGRNQNSRRPSRATWLSLFSSEESNLGANNYDDYRMDWLVPATCEPIQSVFFFSGDKYYRVNLRTRRVDTVDPPYPRSIAQYWLGCPAPGHL

Assays:
Type in all cases: cell-based, human
imDAPs [1] = assay: imDAP expansion, cell morphology (bright-field); conditions: for attachment and morphology of imDAPs on coated surface (FIG. 4A): coating 1 μg/cm^2 each, day 4, Example 8 expansion medium
Protocol: imDAPs were produced according to the method described in CN201910169525.0. The imDAPs (P0) were seeded on VTN-coated plates (1 μg/cm^2) at a density of 1×10^5 cells/cm^2 in the expansion medium (50% DMEM/F12, 50% Neurobasal™ medium, 1% (v/v) Glutamax, 2% (v/v) B27 (50×), 0.2 μM LDN193189, 3 μM CHIR99021, 100 ng/mL FGF8b) in the absence or presence of 5 μM Blebbistatin. In case where Blebbistatin is present, Blebbistatin was either removed 24 hrs after plating or present throughout the culture period. The medium was changed every day for 5 days.
imDAPs were produced according to the method described in CN201910169525.0. The imDAPs (P0) were seeded on VTN-coated plates (1 μg/cm^2) at a density of 1×10^5 cells/cm^2 in the expansion medium (50% DMEM/F12, 50% Neurobasal™ medium, 1% (v/v) Glutamax, 2% (v/v) B27 (50×), 3 μM CHIR99021, 100 ng/mL FGF8b, 5 μM Blebbistatin) in the absence or presence of 0.2 μM LDN193189. The medium was changed every day for 5 days.
(§1) imDAPs were produced according to the method described in CN201910169525.0. The imDAPs (P0) were seeded on DLL4-coated (1 μg/cm^2), VTN-coated (1 μg/cm^2) and DLL4/VTN-coated (1 μg/cm^2 for each) plates at a low density of 1×10^4 cells/cm^2 respectively, and cultured in the expansion medium in the absence or presence of 5 μM SB431542. Medium was replaced every 3rd day until reaching 100% confluence (6 days) for cell collection. The typical cell morphology on day 4 was recorded (FIG. 4A). The cell number of each group was counted by Vi-cell cytometer (FIG. 4B). The cells of each group were stained with Foxa2-PE antibody (BD, #561589), the percentage of Foxa2+ imDAPs were analyzed by flow cytometry (FIG. 4C). The expansion medium used in this example contained the following components: 50% DMEM/F12, 50% Neurobasal™ medium, 1% (v/v) Glutamax, 1% (v/v) B27, 50 μg/ml ascorbic acid, 0.2 μM LDN193189, 100 ng/ml FGF8b, 3 μM CHIR99021 and 10 µM Y27632.
(§2) imDAPs were produced according to the method described in CN201910169525.0. The imDAPs (P0) were seeded on DLL4/VTN-coated (1 μg/cm^2 for each) plates at a low density of 1×10^4 cells/cm^2, and cultured in the expansion medium (EM1, EM2, EM3, EM4). Medium was replaced every 3rd day until reaching 100% confluence (6 days) for cell collection. EM1 used in Example 9 contained the following components: 50% DMEM/F12, 50% Neurobasal™ medium, 1% (v/v) Glutamax, 1% (v/v) B27 (50×), 50 μg/ml ascorbic acid, 3 μM CHIR99021, 5 μM SB431542 and 10 μM Y27632. EM2 used in Example 9 contained the following components: 50% DMEM/F12, 50% Neurobasal™ medium, 1% (v/v) Glutamax, 1% (v/v) B27 (50×), 50 μg/ml ascorbic acid, 0.2 μM LDN193189, 3 μM CHIR99021, 5 μM SB431542 and 10 μM Y27632. EM3 used in Example 9 contained the following components: 50% DMEM/F12, 50% Neurobasal™ medium, 1% (v/v) Glutamax, 1% (v/v) B27 (50×), 50 μg/mL ascorbic acid, 0.2 μM LDN193189, 100 ng/ml FGF8b, 3 μM CHIR99021, 5 μM SB431542 and 10 μM Y27632. EM4 used in Example 9 contained the following components: 50% DMEM/F12, 50% Neurobasal™ medium, 1% (v/v) Glutamax, 1% (v/v) B27 (50×), 50 μg/ml ascorbic acid, 0.2 μM LDN193189, 10 ng/ml FGF2, 3 μM CHIR99021, 5 μM SB431542 and 10 μM Y27632.

imDAPs [2] = assay: imDAP expansion efficiency (cell number, expansion fold, Population Doubling Time); conditions: DLL4/VTN-coated; for imDAP expansion, overall conclusion of Example 9: added to CHIR99021/SB431542/Y27632 medium
Protocol: imDAPs were produced according to the method described in CN201910169525.0. The imDAPs (P0) were seeded on VTN-coated plates (1 μg/cm^2) at a density of 1×10^5cells/cm^2 in the expansion medium (50% DMEM/F12, 50% Neurobasal™ medium, 1% (v/v) Glutamax, 2% (v/v) B27 (50×), 0.2 μM LDN193189, 3 μM CHIR99021, 100 ng/mL FGF8b, 5 μM Blebbistatin). The medium was changed every day. When imDAPs reach 100% confluence (4-5 days), cells were passaged enzymatically with 1× TrypLE, centrifuged at 250 g for 5 minutes, counted and replaced on new VTN-coated plates (1 μg/cm^2) at a density of 1×10^5 cells/cm^2 in the expansion medium. imDAPs were continuously expanded for 6 passages. At each passage, imDAPs were harvested at an expansion fold 5˜10 (over the initial number of imDAPs plated).
as §1, with “The expansion medium used in this example contained the following components: 50% DMEM/F12, 50% Neurobasal™ medium, 1% (v/v) Glutamax, 1% (v/v) B27, 50 μg/ml ascorbic acid, 0.2 μM LDN193189, 100 ng/ml FGF8b, 3 μM CHIR99021 and 10 µM Y27632.” left out
imDAPs were produced according to the method described in CN201910169525.0. […] Medium was replaced every 3rd day until reaching 100% confluence (6 days) for cell passaging. imDAPs were passaged enzymatically with 1× TrypLE, centrifuged at 250 g for 5 minutes, counted and plated on new DLL4/VTN-coated plates at a density of 1×10^4 cells/cm^2 in the expansion medium. imDAPs were expanded and maintained in the expansion medium for 6 passages. […]

imDAPs [3] = assay: Flow cytometry analysis of FOXA2 expression in expanded imDAPs; conditions: for FOXA2 expression, FACS (FIG. 4C): VTN or DLL4+VTN coating, with or without 5 μM SB431542, 6 days
Protocol: 1. Individualize and collect cells by either Accutase or TrypLE treatment.
2. Wash cells with 1 ml PBS and pellet cells at 250×g for 15 sec.
3. Remove supernatant, add ˜200 μl of 4% PFA, mix and fix for 10 min at RT.
4. Pellet cells at 350×g for 5 min.
5. Wash cells by 1 ml of FACS buffer and pellet cells at 350×g for 5 min.
6. Remove supernatant, add 200 μl/tube of FACS buffer/0.1% TritonX, mix for 10 min at RT.
7. Wash cells by 1 ml of FACS buffer and pellet cells at 350×g for 5 min.
8. Remove supernatant, add 200 μl/tube of primary antibody diluted in FACS buffer, mix gently, and incubate for 30 min at RT.
9. Wash cells by 1 ml of FACS buffer and pellet cells at 350×g for 5 min.
10. Remove supernatant, and add 200 μl of secondary antibody diluted in FACS buffer, mix gently, and incubate for 30 min at RT.
11. Wash cells by 1 ml of FACS buffer and pellet cells at 300×g for 5 min.
12. Remove supernatant, add 200 μl of FACS buffer, and run samples on the flow cytometry.
imDAPs were produced according to the method described in CN201910169525.0. The imDAPs (P0) were seeded on VTN-coated plates (1 μg/cm^2) at a low density of 1×10^4 cells/cm^2, and cultured in the expansion medium (50% DMEM/F12, 50% Neurobasal™ medium, 1% (v/v) Glutamax, 2% (v/v) B27 (50×), 0.2 μM LDN193189, 3 μM CHIR99021, 100 ng/mL FGF8b) with either 5 μM Blebbistatin or 10 μM Y27632. Medium was replaced every 3rd day. At Day 6, cells were collected for FACS analysis.
as §1
as §2, with “EM4 used in Example 9 contained the following components: 50% DMEM/F12, 50% Neurobasal™ medium, 1% (v/v) Glutamax, 1% (v/v) B27 (50×), 50 μg/ml ascorbic acid, 0.2 μM LDN193189, 10 ng/ml FGF2, 3 μM CHIR99021, 5 μM SB431542 and 10 μM Y27632.” left out

Row | Molecule | imDAP expansion, overall conclusion of Example 9 (imDAPs [2]) | FOXA2 expression, FACS (FIG. 4C) (imDAPs [3]) | attachment and morphology of imDAPs on coated surface (FIG. 4A) (imDAPs [1]) | further results
1 | Cc1ccc2c(c1)C(=O)C1(O)CCN(c3ccccc3)C1=N2 (centres unmarked) [Blebbistatin] | – | – | – | imDAP expansion (cell morphology, FIG. 1A) (imDAPs [1]; 5 μM Blebbistatin throughout culture vs absent or removed 24 hrs after plating, VTN-coated plates, 5 days, P0 imDAPs): supported better imDAP expansion
2 | c1ccc2c(-c3cnn4cc(-c5ccc(N6CCNCC6)cc5)cnc34)ccnc2c1 [LDN193189] | had no additional effects on imDAP expansion | – | – | cell number during expansion (FIG. 5B) (imDAPs [2]; adding 0.2 μM LDN193189 and/or 100 ng/ml FGF8b to CHIR99021/SB431542/Y27632 medium, 6 days): had no additional effect on increasing the cell number; cell morphology of expanded imDAPs (FIG. 1B) (imDAPs [1]; absence vs presence of 0.2 μM LDN193189, VTN-coated, 5 days): imDAPs cultured without LDN193189 showed more flattened morphology; expression of FOXA2 for imDAPs, flow cytometry (FIG. 5C) (imDAPs [3]; addition of 100 ng/ml FGF8b and/or 0.2 μM LDN193189, DLL4/VTN-coated, P1 cells): slightly decreased the expression of FOXA2
3 | NC(=O)c1ccc(-c2nc(-c3ccc4c(c3)OCO4)c(-c3ccccn3)[nH]2)cc1 [SB431542] | – | could improve FOXA2 expression | – | –
4 | DLL4: Notch agonist Delta-Like 4, used as coating matrix | – | could improve FOXA2 expression | could not support the attachment of imDAPs | –
5 | FGF2: fibroblast growth factor | had no additional effects on imDAP expansion | – | – | cell morphology on day 5 (FIG. 5A) (imDAPs [1]; 10 ng/ml FGF2 (with 0.2 μM LDN193189) in expansion medium EM4, DLL4/VTN-coated): some obvious heterogeneous cells were observed
6 | B1 | – | – | flattened morphology | –
